Measurements published in patent US8841313B2, “CCR2 antagonists and uses thereof” (Boehringer Ingelheim International GmbH, priority 2010, dated 2014).

Biological target: T1, CCR2 (Homo sapiens, UniProt P41597)
T1 construct: Membranes were prepared from THP-1 cells; endogenous in cells; host or cells: THP-1 (human acute monocytic leukaemia cells), membrane preparation
Test: CCR2 receptor membrane binding assay ([125I]MCP-1, THP-1 membranes, SPA beads)
Conditions: THP-1 cell membranes, [125I]MCP-1 displacement, bound radioactivity after 8 h; read-out: hKi
Procedure: The above exemplary substances have been tested for binding to CCR2 using a binding assay as outlined herein below:
THP-1 cells (human acute monocytic leukaemia cells) were cultured under standardized conditions at 37° C. and 5% CO2 in a humidified incubator. THP-1 cells were cultivated in RPMI 1640 medium (Gibco 21875) containing 1% MEM-NEAA (Gibso 11140) 2 mM L-glutamine, 1.5 g/L sodium bicarbonate, 4.5 g/L glucose, 10 mM HEPES and 1.0 mM sodium pyruvate, 90%; 10% fetal calf serum (FCS Gibco 10500-064).
Membranes were prepared from THP-1 cells. THP-1 cells were centrifuged at 300×g at 4° C. for 10 min. The cell pellet was resuspended in Phosphate Buffer Saline (PBS, including 10 μM Pefabloc and a protease inhibitor mix ‘complete’, Boehringer Mannheim (1 tablet/50 ml)), to a concentration of […]. The membrane preparation was performed by disrupting the cells by nitrogen […] (at 50 bar, for 1 h) in a “Nitrogen Bombe” (Parr Instrument). Cell debris was removed by centrifugation (800×g at 4° C., 1 min). The supernatant was centrifuged at 80000×g, 4° C. for 30 min to sediment the cell membranes. Usually 50 mg of protein (Bradford assay) were yielded from 1×10E9 cells. The membranes were resuspended in 25 mM HEPES, 25 mM MgCl2, 1 mM CaCl2, 10% Glycerine for storage in aliquots at −80° C. in 25 mM HEPES, 25 mM MgCl2, 1 mM CaCl2, 10% Glycerine and stored at −80° C.
Perkin Elmer NEX 332 Jod 125 MCP-1, Stock: 2200 Ci/mmol solved in 2000 μl assay buffer, stored at −20° C. THP-1 membrane were adjusted with 25 mM HEPES, pH 7.2; 5 mM MgCl2; 0.5 mM CaCl2; 0.2% BSA assay buffer to a concentration of 2.5 μg/15 μl. Amersham Biosciences PVT-WGA Beads (RPNQ0001) were adjusted with assay buffer to a concentration of 0.24 mg/30 μl. For preparation of the membrane-bead-suspension membranes and beads were incubated for 30 min at RT under rotation (60 rpm) with a ratio of 1:2. Test compounds dissolved in 100% DMSO to a concentration of 10 mM and are further diluted with 100% DMSO to 1 mM. All additional compound dilutions were obtained with assay buffer, final 1% DMSO. Compounds, membrane-bead-suspension and [125I]MCP-1 (ca. 25000 cpm/10 μl) were incubated. Bound radioactivity was determined by scintillation counter after 8 h. Determination of affinity of test compounds (dissociation constant hKi) is calculated by iterative fitting of experimental data using the “easy sys” program, which is based on law of mass action (Schittkowski K. (1994), Numerische Mathematik, Vol. 68, 129-142).

T1 sequence (P41597 whole entry): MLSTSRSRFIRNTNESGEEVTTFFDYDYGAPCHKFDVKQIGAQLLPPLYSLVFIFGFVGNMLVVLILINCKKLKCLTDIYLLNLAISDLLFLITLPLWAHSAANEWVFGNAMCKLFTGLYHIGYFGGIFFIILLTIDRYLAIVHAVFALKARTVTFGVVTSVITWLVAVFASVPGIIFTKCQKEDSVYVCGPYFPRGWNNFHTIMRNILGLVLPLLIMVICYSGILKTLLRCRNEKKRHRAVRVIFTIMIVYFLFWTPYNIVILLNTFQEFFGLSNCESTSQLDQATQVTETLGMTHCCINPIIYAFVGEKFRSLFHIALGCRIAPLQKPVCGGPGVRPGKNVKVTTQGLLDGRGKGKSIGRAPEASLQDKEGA

COC1COCCC1NC1CCN(C(=O)c2ncnc(Oc3cccc(C(F)(F)F)c3)c2C)CC1 (stereo not shown) [Example 1]
Ki: 278 nM

COC1COCCC1NC1CCN(C(=O)c2ncnc(OCc3ccc(C(C)(C)C)cc3)c2C)CC1 (stereo not shown) [Example 2]
Ki: 21 nM

COC1COCCC1NC1CCN(C(=O)c2ncnc(OCc3ccc(Cl)c(Cl)c3)c2C)CC1 (stereo not shown) [Example 2a]
Ki: 8 nM

COC1COCCC1NC1CCN(C(=O)c2ncnc(OCc3ccc(C(F)(F)F)c(Cl)c3)c2C)CC1 (stereo not shown) [Example 2b]
Ki: 8 nM

COC1COCCC1NC1CCN(C(=O)c2ncnc(OCc3cc(Cl)cc(Cl)c3)c2C)CC1 (stereo not shown) [Example 2c]
Ki: 18 nM

CO[C@@H]1COCC[C@@H]1NC1CCN(C(=O)c2ncnc(OCc3ccc(Cl)c(Cl)c3)c2C)CC1 [Example 2d]
Ki: 12 nM

CO[C@H]1COCC[C@H]1NC1CCN(C(=O)c2ncnc(OC[C@H]3CCC[C@@H](c4ccc(OC(F)(F)F)cc4)O3)c2C)CC1 [Example 3]
Ki: 45 nM

CO[C@@H]1COCC[C@@H]1NC1CCN(C(=O)c2nccc(OCc3ccc(C(C)(C)C)cc3)c2C)CC1 [Example 3a]
Ki: 23 nM

CO[C@H]1COCC[C@H]1NC1CCN(C(=O)c2nccc(OCc3ccc(C(C)(C)C)cc3)c2C)CC1 [Example 3b]
Ki: 108 nM

COc1nc(OCc2ccc(C(F)(F)F)cc2)c(C)c(C(=O)N2CCC(N[C@@H]3CCOC[C@@H]3OC)CC2)n1 [Example 3c]
Ki: 14 nM

COc1nc(OCc2ccc(C(F)(F)F)cc2)c(C)c(C(=O)N2CCC(N[C@H]3CCOC[C@H]3OC)CC2)n1 [Example 3d]
Ki: 4 nM

CO[C@H]1COCC[C@H]1NC1CCN(C(=O)c2nc(C(F)(F)F)nc(OCc3ccc(C(C)(C)C)cc3)c2C)CC1 [Example 3e]
Ki: 9 nM

CO[C@@H]1COCC[C@@H]1NC1CCN(C(=O)c2nc(C(F)(F)F)nc(OCc3ccc(C(C)(C)C)cc3)c2C)CC1 [Example 3f]
Ki: 7 nM

COc1nc(OCc2ccc(C(C)(C)C)cc2)c(C)c(C(=O)N2CCC(N[C@H]3CCOC[C@H]3OC)CC2)n1 [Example 3g]
Ki: 2 nM

COc1nc(OCc2cccc(C(F)(F)F)c2)c(C)c(C(=O)N2CCC(N[C@H]3CCOC[C@H]3OC)CC2)n1 [Example 3h]
Ki: 18 nM

COc1nc(OCc2ccc(C(C)(C)C)cc2)c(C)c(C(=O)N2CCC(N[C@@H]3CCOC[C@@H]3OC)CC2)n1 [Example 3i]
Ki: 4 nM

COc1nc(OCc2ccc(C(F)(F)F)c(Cl)c2)c(C)c(C(=O)N2CCC(N[C@H]3CCOC[C@H]3OC)CC2)n1 [Example 3j]
Ki: 3 nM

COc1nc(OCc2ccc(C(F)(F)F)c(Cl)c2)c(C)c(C(=O)N2CCC(N[C@@H]3CCOC[C@@H]3OC)CC2)n1 [Example 3k]
Ki: 8 nM

COc1nc(OCc2ccc(Cl)c(F)c2)c(C)c(C(=O)N2CCC(N[C@H]3CCOC[C@H]3OC)CC2)n1 [Example 3l]
Ki: 8 nM

COc1nc(OCc2ccc(Cl)c(Cl)c2)c(C)c(C(=O)N2CCC(N[C@H]3CCOC[C@H]3OC)CC2)n1 [Example 3m]
Ki: 10 nM

CO[C@@H]1COCC[C@@H]1NC1CCN(C(=O)c2nc(C(F)(F)F)nc(OCc3ccc(Cl)c(Cl)c3)c2C)CC1 [Example 3n]
Ki: 16 nM

CO[C@@H]1COCC[C@@H]1NC1CCN(C(=O)c2nc(C(F)(F)F)nc(OCc3cc(Cl)cc(Cl)c3)c2C)CC1 [Example 3o]
Ki: 18 nM
